Laboratory results from US20260297542A1, “HERBICIDE RESISTANT PLANTS” (SYNGENTA CROP PROTECTION AG, priority 2023, published 2026).
Where a chain is given by its changes, count along the chain named.

Columns and labels:
Assay in all cases: E. coli hemG growth inhibition by herbicide, AtPPO1 variant
Assay type in all cases: cell-based
Conditions in all cases: read-out: percentage growth inhibition
AtPPO1 G481K = target: T1, AtPPO1 G481K (Arabidopsis thaliana, UniProt P55826, G481K)
T1 construct: expressed in transfected cells; host or cells: E. coli BL21(DE3) hemG, pET24a plasmid
T1 sequence (P55826 35-537 G481K): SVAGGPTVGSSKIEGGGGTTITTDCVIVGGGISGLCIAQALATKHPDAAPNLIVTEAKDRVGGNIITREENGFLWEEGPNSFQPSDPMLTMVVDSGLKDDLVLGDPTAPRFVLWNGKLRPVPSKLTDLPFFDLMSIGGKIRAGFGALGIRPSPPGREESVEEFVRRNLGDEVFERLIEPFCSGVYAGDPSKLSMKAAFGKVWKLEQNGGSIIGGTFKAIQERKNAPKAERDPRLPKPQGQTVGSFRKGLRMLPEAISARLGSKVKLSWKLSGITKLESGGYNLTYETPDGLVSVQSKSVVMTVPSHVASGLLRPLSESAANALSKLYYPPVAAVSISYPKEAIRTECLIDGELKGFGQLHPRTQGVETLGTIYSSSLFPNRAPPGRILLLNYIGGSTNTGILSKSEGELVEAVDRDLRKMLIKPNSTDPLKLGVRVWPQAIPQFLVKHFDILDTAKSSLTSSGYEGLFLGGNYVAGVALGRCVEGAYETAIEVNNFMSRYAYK
Text: (§1) A pET24a plasmid containing a DNA sequence encoding a variant of PPO1 derived from Arabidopsis thaliana (AtPPO1), codon-optimised for expression in E. coli and under control of a T7 promoter, was synthesised by Twist Bioscience (SEQ ID NO:3). This plasmid was used as the basis of a Site Saturation Variant Library (SSVL) that substituted the codons at 352 amino acid positions for codons that encoded one of the other 19 amino acids, or removed the codon altogether, resulting in a translation product with a deletion at that position.
(§2) The SSVL was batch-transformed by electroporation into an E. coli BL21(DE3) hemG strain with the hemG gene replaced by CmR conferring resistance to chloramphenicol and spread onto LA supplemented with 50 μg/mL kanamycin, 25 μg/mL chloramphenicol and 20 μg/mL hematin. Each batch consisted of all the plasmids that contained variants at two sites.
(§3) Colonies from batch transformations were inoculated into 500 μL of Terrific broth supplemented with 50 μg/mL kanamycin, 25 μg/mL chloramphenicol and 20 μg/mL hematin in 96-deepwell blocks. Cultures were grown for 24 hours at 37° C. with shaking at 250 rpm.
(§4) Overnight cultures were centrifuged and the cell pellets resuspended with 500 μL of Terrific broth. The resuspended cultures were used at a ratio of 1:100 to inoculate a fresh 96-deepwell block containing 500 μL of Terrific broth supplemented with 0.1 mM IPTG, 50 μg/mL kanamycin, 25 μg/mL chloramphenicol and 6.25 ppm of herbicide […] or E or 0.78 ppm herbicide B or DMSO. Assay cultures were grown for 24 hours at 37° C. with shaking at 250 rpm with the OD600 being measured at 24 hours post inoculation. Strains that grew in both DMSO and herbicide were determined to be herbicide tolerant with the percentage of growth inhibition being calculated as below: […]

AtPPO1 L424V = target: T2, AtPPO1 L424V (Arabidopsis thaliana, UniProt P55826, L424V)
T2 construct: expressed in transfected cells; host or cells: E. coli BL21(DE3) hemG (pET24a, T7 promoter)
T2 sequence (P55826 35-537 L424V): T1 sequence (P55826 35-537 G481K) with L390V, K447G
Text: as §1, §2, §3, §4

AtPPO1 V198W = target: T3, AtPPO1 V198W (Arabidopsis thaliana, UniProt P55826, V198W)
T3 construct: expressed in transfected cells; host or cells: E. coli BL21(DE3) hemG (hemG replaced by CmR), pET24a plasmid
T3 sequence (P55826 35-537 V198W): T1 sequence (P55826 35-537 G481K) with V164W, K447G
Text: as §1, §2, §3, §4

AtPPO1 Y426M = target: T4, AtPPO1 Y426M (Arabidopsis thaliana, UniProt P55826, Y426M)
T4 construct: expressed in transfected cells; host or cells: E. coli BL21(DE3) hemG (pET24a, T7 promoter)
T4 sequence (P55826 35-537 Y426M): T1 sequence (P55826 35-537 G481K) with Y392M, K447G
Text: as §1, §2, §3, §4

| Compound | inhibition at 6.25 ppm (AtPPO1 G481K) [%] | inhibition at 6.25 ppm (AtPPO1 L424V) [%] | inhibition at 6.25 ppm (AtPPO1 V198W) [%] | inhibition at 6.25 ppm (AtPPO1 Y426M) [%] | inhibition at 0.78 ppm (AtPPO1 G481K) [%] | inhibition at 0.78 ppm (AtPPO1 L424V) [%] | inhibition at 0.78 ppm (AtPPO1 V198W) [%] | inhibition at 0.78 ppm (AtPPO1 Y426M) [%] |
| --- | --- | --- | --- | --- | --- | --- | --- | --- |
| CC(C)N(C)S(=O)(=O)NC(=O)c1cc(-n2c(=O)cc(C(F)(F)F)n(C)c2=O)c(F)cc1Cl [Herbicide E, saflufenacil] | 0 | 66 | 51 | 17 |  |  |  |  |
| C#CCN1C(=O)C(F)(F)Oc2cc(F)c(-n3c(=O)n(C)c(=S)n(C)c3=O)cc21 [Herbicide B, trifludimoxazin] |  |  |  |  | 10 | 19 | 30 | 7 |
| CCOC(=O)[C@]1(C)CC(c2cc(-n3c(=O)n(C)c(=S)n(C)c3=O)c(F)cc2Cl)=NO1 [Herbicide D, ethyl (5S)-3-[2-chloro-5-(3,5-dimethyl-2,6-dioxo-4-thioxo-1,3,5-triazinan-1-yl)-4-fluoro-phenyl]-5-methyl-4H-isoxazole-5-carboxylate] | 12 | 33 | 47 | 25 |  |  |  |  |
